Where two headings read alike, the source gives them in different places.
Tests used:
[1] = system: Male Sprague-Dawley rats; assay: Effect on energy expenditure of rats; format: in vivo; settings: percentage of rate of rats dosed with water; for response vs control in vivo at 3.6 mg/kg / response vs control in vivo at 8.9 mg/kg / response vs control in vivo at 32.6 mg/kg / response vs control in vivo at 4.3 mg/kg / response vs control in vivo at 4 mg/kg / response vs control in vivo at 3.7 mg/kg / response vs control in vivo at 8.2 mg/kg / response vs control in vivo at 21.6 mg/kg: Rattus norvegicus, po; for response vs control in vivo at 8.9 mg/kg: 8.9 mg/kg p.o.; for response vs control in vivo at 32.6 mg/kg: 32.6 mg/kg p.o.; for response vs control in vivo at 4.3 mg/kg: 4.3 mg/kg p.o.; for response vs control in vivo at 4 mg/kg: 4.0 mg/kg p.o.; for response vs control in vivo at 3.7 mg/kg: 3.7 mg/kg p.o.; for response vs control in vivo at 8.2 mg/kg: 8.2 mg/kg p.o.; for response vs control in vivo at 21.6 mg/kg: 21.6 mg/kg p.o.
Protocol: Water was provided ad lib at all times. The compounds were administered orally in water to 3 or 4 rats. A further 4 rats were dosed orally with water. The rats were placed in boxes through which air was drawn and the oxygen content of the air leaving the boxes was measured. The energy expenditure of the rats was calculated for 3 hours and for 21 hours after dosing from the volume of air leaving the boxes and its oxygen content, following the principles described by J.B. de V. Weir, J. Physiol. (London) 109, 1-9 (1949). The results are expressed as a percentage of the rate of energy expenditure of the rats dosed with water.

[2] = system: spontaneously beating right atrium; assay: Isolated rat atria: rate of the spontaneously beating right atrium; settings: for EC50: molar concentration producing 50% of the compound's own maximum response; for Emax: read-out: Rate Intrinsic Activity
Protocol: (§1) Sprague-Dawley male rats (300-400g) are killed and the right and left atria dissected out independently and mounted on a combined tissue holder/electrode. […] The rate of the spontaneously beating right atrium (via an isometric transducer and a ratemeter) and the tension of the electrically paced left atrium (via an isometric transducer) are recorded on a M19 chart recorder.
(§2) After an initial stabilization period, the tissues are exposed to a maximal concentration of isoprenaline (10-^7M). The tissues are then washed several times until rate and tension return to baseline level. A dose-response curve to the test compound is then carried out.
(§3) Responses to each concentration of test compound are expressed as a percentage of the maximal responses to isoprenaline. Results are given in the form of (a) intrinsic activity (maximal effect of test compound with respect to isoprenaline maximum, i.e. isoprenaline intrinsic activity = 1) and (b) EC50 (the molar concentration at which the test compound produces 50% of its own maximum response).

[3] = system: electrically paced left atrium; assay: Isolated rat atria: tension of the electrically paced left atrium; settings: for EC50: molar concentration producing 50% of the compound's own maximum response; for Emax: read-out: Tension Intrinsic Activity
Protocol: as §1, §2, §3

[4] = Krebs solution at 32°C, maximal effect relative to isoprenaline maximum (isoprenaline = 1)
[5] = Rattus norvegicus, Krebs solution at 32°C, maximal effect relative to isoprenaline maximum (isoprenaline = 1)
[6] = Rattus norvegicus, Krebs solution at 32°C
[7] = 3 h, 0-3h after dosing, read-out: Mean Energy Expenditure 0-3h
[8] = 21 h, 0-21h after dosing, read-out: Mean Energy Expenditure 0-21h
[9] = Rattus norvegicus, organ bath at 29°C, maximal effect relative to isoprenaline maximum (isoprenaline = 1)
[10] = Rattus norvegicus, organ bath at 29°C

With `CC(Cc1ccc2c(c1)NC(=O)CO2)NCC(O)c1cccc(Cl)c1` (centres unmarked) [8 (14:86), 6-[2-[2-(3-Chlorophenyl)-2-hydroxyethylamino]-2-methylethyl]-2H-1,4-benzoxazin-3-(4H)-one] the response vs control in vivo at 3.6 mg/kg ([1]; 3 h, 3.6 mg/kg p.o., 0-3h after dosing, read-out: Mean Energy Expenditure 0-3h) was 125%, the response vs control in vivo at 3.6 mg/kg ([1]; 21 h, 3.6 mg/kg p.o., 0-21h after dosing, read-out: Mean Energy Expenditure 0-21h) was 105% and the “Rate Intrinsic Activity” value [2, 4] was 0.16. For the same compound, the EC50 ([2]; Krebs solution at 32°C) was 750 nM, the “Tension Intrinsic Activity” value [3, 4] was 0.20 and the EC50 ([3]; Krebs solution at 32°C) was 3800 nM.
`CC(Cc1ccc2c(c1)NC(=O)CO2)NCC(O)c1cccc(Cl)c1` (centres unmarked) [8 (82:18), 6-[2-[2-(3-chlorophenyl)-2-hydroxyethylamino]-2-methylethyl]-2H-1,4-benzoxazin-3-(4H)-one] was tested, and the “Mean Energy Expenditure 0-3h” value ([1]; 3.6 mg/kg p.o., 0-3h after dosing) was 122%, the “Mean Energy Expenditure 0-21h” value ([1]; 3.6 mg/kg p.o., 0-21h after dosing) was 106% and the EC50 ([2]; Krebs solution at 32°C) was 240 nM. For the same compound, the Emax [2, 5] was 29%, the Emax [3, 5] was 12% and the EC50 [3, 6] was 3200 nM.
In the case of `CC(COc1ccc2c(c1)NC(=O)CO2)NCC(O)COc1ccccc1O` (centres unmarked) [Example 5, 6-[2-[3-(2-hydroxyphenoxy)-2-hydroxypropylamino]-2-methylethoxy]-2H-1,4-benzoxazin-3-(4H)-one hemifumarate], the response vs control in vivo at 8.9 mg/kg [1, 7] is reported as 111%, the response vs control in vivo at 8.9 mg/kg [1, 8] is reported as 100% and the Emax [2, 5] is reported as 18%. It also gave an EC50 [2, 6] of 35 nM.
`CC(Cc1ccc2c(c1)NC(=O)CO2)NCC(O)COc1ccccc1O` (centres unmarked) [Example 9, 6-[2-[3-(2-hydroxyphenoxy)-2-hydroxypropylamino]-2-methylethyl]-2H-1,4-benzoxazin-3-(4H)-one] was tested, and the Emax [2, 5] was 15%, the EC50 [2, 6] was 30 nM and the Emax [3, 5] was 12%. For the same compound, the EC50 [3, 6] was 28 nM.
For `CC(Cc1ccc2c(c1)NC(=O)CO2)NCC(O)c1ccccc1` (centres unmarked) [Example 10, 6-[2-[2-Phenyl-2-hydroxyethylamino]-2-methylethyl]-2H-1,4-benzoxazin-3-(4H)-one], the response vs control in vivo at 32.6 mg/kg [1, 7] was 122% and the response vs control in vivo at 32.6 mg/kg [1, 8] was 101%.
In the case of `CC(Cc1ccc2c(c1)N(C)C(=O)CO2)NCC(O)c1cccc(Cl)c1` (centres unmarked) [Example 13, 6-[2-[2-(3-Chlorophenyl)-2-hydroxyethylamino]-2-methylethyl]-4-methyl-2H-1,4-benzoxazin-3-(4H)-one hemifumarate], the Emax [2, 9] is reported as 64%, the EC50 [2, 10] is reported as 250 nM and the Emax [3, 9] is reported as 54%. The EC50 [3, 10] was 15000 nM.
Work on `C=CCOc1ccccc1OCC(O)CNC(C)COc1ccc2c(c1)NC(=O)CO2` (centres unmarked) [Example 16, 6-[2-[3-(2-Allyloxyphenoxy)-2-hydroxypropylamino]-2-methyl-ethoxy]-2H-1,4-benzoxazin-3-(4H)-one] yielded a response vs control in vivo at 4.3 mg/kg [1, 7] of 115% and a response vs control in vivo at 4.3 mg/kg [1, 8] of 101%.
`COc1ccccc1OCC(O)CNC(C)COc1ccc2c(c1)NC(=O)CO2` (centres unmarked) [Example 17, 6-[2-[3-(2-Methoxyphenoxy)-2-hydroxypropylamino]-2-methyl-ethoxy]-2H-1,4-benzoxazin-3-(4H)-one] gave a response vs control in vivo at 4 mg/kg [1, 7] of 112%, a response vs control in vivo at 4 mg/kg [1, 8] of 103% and an Emax [2, 9] of 91%. For the same compound, the EC50 [2, 10] was 8.6 nM.
In the case of `CC(COc1ccc2c(c1)NC(=O)CO2)NCC(O)COc1ccccc1` (centres unmarked) [Example 18, 6-[2-(2-Hydroxy-3-phenoxypropylamino)-2-methylethoxy]-2H-1,4-benzoxazin-3-(4H)-one], the response vs control in vivo at 3.7 mg/kg [1, 7] is reported as 155%, the response vs control in vivo at 3.7 mg/kg [1, 8] is reported as 109% and the Emax [2, 5] is reported as 52%. It also gave an EC50 [2, 6] of 11 nM.
With `CC(COc1ccc2c(c1)NC(=O)CO2)NCC(O)COc1cccc2[nH]ccc12` (centres unmarked) [Example 19, 6-[2-[2-hydroxy-3-(indol-4-yloxy)propylamino]-2-methyl-ethoxy]-2H-1,4-benzoxazin-3-(4H)-one] the response vs control in vivo at 8.2 mg/kg [1, 7] was 116%, the response vs control in vivo at 8.2 mg/kg [1, 8] was 114% and the Emax [2, 9] was 54%. It also gave an EC50 [2, 10] of 130 nM.
`CC(COc1ccc2c(c1)NC(=O)CO2)NCC(O)COc1cc(O)cc(O)c1` (centres unmarked) [Example 21, 6-[2-[3-(3,5-Dihydroxyphenoxy)-2-hydroxypropylamino]-2-methylethoxy]-2H-1,4-benzoxazin-3-(4H)-one hemifumarate] was tested, and the response vs control in vivo at 21.6 mg/kg [1, 7] was 110%, the response vs control in vivo at 21.6 mg/kg [1, 8] was 105% and the Emax [2, 9] was 85%. For the same compound, the EC50 [2, 10] was 16 nM.

Source: EP0171702A1, “Benzoxazinone derivatives, preparation and use” (BEECHAM GROUP PLC, priority 1984, dated 1986)
